Experimental data as given in the kinase profiling compilation of Christmann-Franck et al. (2016).

Key:
Assay in all cases: radiometric filter-binding kinase assay, Kinase HotSpot
Conditions in all cases: compound 0.5 µM; ATP 10 µM
[1] = molecular target: CAMK2G (human) (UniProt Q13555)
[2] = molecular target: NEK4 (human) (UniProt P51957)
[3] = molecular target: EPHB4 (human) (UniProt P54760)
[4] = molecular target: NEK11 (human) (UniProt Q8NG66)
[5] = molecular target: ABL1 (human) (UniProt P00519)
Sequence of ABL1 (human) (P00519 whole entry, looked up): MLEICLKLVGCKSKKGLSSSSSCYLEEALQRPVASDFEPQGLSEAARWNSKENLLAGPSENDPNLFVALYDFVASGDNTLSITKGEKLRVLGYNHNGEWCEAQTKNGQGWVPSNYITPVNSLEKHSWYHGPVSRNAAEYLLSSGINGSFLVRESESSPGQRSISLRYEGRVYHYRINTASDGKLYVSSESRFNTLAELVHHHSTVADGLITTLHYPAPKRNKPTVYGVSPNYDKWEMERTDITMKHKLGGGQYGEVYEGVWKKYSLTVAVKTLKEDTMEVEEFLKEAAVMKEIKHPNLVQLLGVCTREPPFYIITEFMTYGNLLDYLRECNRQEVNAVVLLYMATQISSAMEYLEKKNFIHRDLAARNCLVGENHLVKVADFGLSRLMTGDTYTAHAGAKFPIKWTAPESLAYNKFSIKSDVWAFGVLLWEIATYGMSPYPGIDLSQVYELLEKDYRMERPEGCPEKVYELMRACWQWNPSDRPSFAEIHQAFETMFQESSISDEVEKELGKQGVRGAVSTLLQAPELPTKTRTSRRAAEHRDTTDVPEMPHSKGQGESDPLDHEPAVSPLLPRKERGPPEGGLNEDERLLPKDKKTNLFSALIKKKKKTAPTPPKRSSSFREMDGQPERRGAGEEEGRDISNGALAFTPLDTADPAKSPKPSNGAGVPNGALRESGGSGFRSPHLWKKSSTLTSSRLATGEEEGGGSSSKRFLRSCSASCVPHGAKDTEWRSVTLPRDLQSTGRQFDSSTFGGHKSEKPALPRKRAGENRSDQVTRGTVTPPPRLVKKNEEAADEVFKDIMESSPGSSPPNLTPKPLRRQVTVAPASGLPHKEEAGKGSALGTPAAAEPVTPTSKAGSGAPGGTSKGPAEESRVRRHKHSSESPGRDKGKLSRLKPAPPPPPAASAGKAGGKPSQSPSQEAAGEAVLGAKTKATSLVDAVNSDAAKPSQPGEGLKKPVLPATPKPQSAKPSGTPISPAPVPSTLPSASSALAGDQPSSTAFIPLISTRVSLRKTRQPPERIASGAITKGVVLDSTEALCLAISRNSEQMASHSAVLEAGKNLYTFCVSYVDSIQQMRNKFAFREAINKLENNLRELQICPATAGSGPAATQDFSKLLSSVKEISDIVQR

[6] = molecular target: GSK3A (human) (UniProt P49840)
[7] = molecular target: MAP3K10 (human) (UniProt Q02779)
[8] = molecular target: EPHA4 (human) (UniProt P54764)
Sequence of EPHA4 (human) (P54764 whole entry, looked up): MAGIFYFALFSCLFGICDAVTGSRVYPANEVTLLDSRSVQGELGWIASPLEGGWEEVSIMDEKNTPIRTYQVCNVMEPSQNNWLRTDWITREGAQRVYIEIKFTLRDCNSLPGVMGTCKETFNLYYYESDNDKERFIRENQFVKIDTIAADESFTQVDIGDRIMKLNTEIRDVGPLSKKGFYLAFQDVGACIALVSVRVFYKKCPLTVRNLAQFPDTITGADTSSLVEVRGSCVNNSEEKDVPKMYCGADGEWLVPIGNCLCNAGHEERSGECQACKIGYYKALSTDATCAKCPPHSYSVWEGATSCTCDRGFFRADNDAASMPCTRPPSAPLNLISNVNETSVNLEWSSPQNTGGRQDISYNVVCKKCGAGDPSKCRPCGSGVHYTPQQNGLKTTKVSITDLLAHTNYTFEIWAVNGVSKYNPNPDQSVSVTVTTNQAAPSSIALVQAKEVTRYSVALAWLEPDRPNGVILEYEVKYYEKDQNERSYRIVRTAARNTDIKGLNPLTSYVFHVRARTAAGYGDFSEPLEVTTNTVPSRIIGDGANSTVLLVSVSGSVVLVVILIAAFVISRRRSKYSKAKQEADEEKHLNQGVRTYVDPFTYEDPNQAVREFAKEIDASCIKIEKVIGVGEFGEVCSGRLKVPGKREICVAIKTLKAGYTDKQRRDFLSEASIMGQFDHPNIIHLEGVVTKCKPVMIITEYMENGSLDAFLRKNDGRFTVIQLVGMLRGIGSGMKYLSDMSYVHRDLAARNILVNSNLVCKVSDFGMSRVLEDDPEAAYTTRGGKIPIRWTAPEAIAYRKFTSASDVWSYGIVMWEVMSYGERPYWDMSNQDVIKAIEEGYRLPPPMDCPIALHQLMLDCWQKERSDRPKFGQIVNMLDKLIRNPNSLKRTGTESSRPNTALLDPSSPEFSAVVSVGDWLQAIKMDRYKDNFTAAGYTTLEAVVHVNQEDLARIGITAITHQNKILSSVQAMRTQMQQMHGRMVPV

[9] = molecular target: SLK (human) (UniProt Q9H2G2)
[10] = molecular target: BRSK2 (human) (UniProt Q8IWQ3)
[11] = molecular target: MAP4K5 (human) (UniProt Q9Y4K4)
[12] = molecular target: WNK2 (human) (UniProt Q9Y3S1)
[13] = molecular target: CSF1R (human) (UniProt P07333)
[14] = molecular target: HIPK1 (human) (UniProt Q86Z02)
[15] = molecular target: CDK3 CCNE1 (human) (UniProt Q00526+P24864)
[16] = molecular target: PLK2 (human) (UniProt Q9NYY3)
[17] = molecular target: PTK6 (human) (UniProt Q13882)
[18] = molecular target: RPS6KA2 KD1 KD2 (human) (UniProt Q15349)
[19] = molecular target: CDK7 CCNH MNAT1 (human) (UniProt P50613+P51948+P51946)
[20] = molecular target: CDK6 CCND3 (human) (UniProt P30281+Q00534)
Sequence of CDK6 CCND3 (human) (P30281 whole entry, looked up): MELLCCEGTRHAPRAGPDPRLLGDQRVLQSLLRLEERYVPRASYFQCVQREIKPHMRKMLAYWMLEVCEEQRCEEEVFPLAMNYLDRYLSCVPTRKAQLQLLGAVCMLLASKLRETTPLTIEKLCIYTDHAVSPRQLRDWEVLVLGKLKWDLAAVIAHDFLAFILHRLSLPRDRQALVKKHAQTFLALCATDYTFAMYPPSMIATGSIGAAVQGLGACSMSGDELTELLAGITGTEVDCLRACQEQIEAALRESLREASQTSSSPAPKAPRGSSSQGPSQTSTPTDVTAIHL
Sequence of CDK6 CCND3 (human) (Q00534 whole entry, looked up): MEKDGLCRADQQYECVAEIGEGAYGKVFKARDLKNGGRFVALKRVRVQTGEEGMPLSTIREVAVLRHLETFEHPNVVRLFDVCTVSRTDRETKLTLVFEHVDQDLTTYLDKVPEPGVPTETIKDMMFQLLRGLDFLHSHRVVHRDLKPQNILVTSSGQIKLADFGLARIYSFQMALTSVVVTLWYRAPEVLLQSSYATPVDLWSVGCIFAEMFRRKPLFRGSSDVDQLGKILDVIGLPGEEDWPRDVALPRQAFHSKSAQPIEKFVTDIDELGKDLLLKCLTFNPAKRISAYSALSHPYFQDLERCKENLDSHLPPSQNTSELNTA

[21] = molecular target: CAMK1G (human) (UniProt Q96NX5)
[22] = molecular target: PTK2B (human) (UniProt Q14289)
[23] = molecular target: CDK6 CCND1 (human) (UniProt Q00534+P24385)
[24] = molecular target: CDK9 CCNK (human) (UniProt O75909+P50750)
[25] = molecular target: MAP2K2 (human) (UniProt P36507)
[26] = molecular target: CLK1 (human) (UniProt P49759)
Sequence of CLK1 (human) (P49759 whole entry, looked up): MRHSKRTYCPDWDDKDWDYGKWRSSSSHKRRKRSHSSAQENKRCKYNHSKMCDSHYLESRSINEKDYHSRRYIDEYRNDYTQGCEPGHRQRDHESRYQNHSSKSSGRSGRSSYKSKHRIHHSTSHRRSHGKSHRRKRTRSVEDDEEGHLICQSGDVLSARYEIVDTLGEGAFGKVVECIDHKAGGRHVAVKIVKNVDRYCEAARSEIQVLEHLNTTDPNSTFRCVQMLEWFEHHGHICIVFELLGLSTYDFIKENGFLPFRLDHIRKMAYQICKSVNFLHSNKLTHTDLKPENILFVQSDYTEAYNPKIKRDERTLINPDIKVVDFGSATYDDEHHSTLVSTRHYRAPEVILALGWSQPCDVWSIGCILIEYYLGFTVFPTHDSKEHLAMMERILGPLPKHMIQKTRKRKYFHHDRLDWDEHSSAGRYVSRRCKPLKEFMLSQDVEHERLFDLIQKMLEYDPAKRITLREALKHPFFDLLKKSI

[27] = molecular target: SRMS (human) (UniProt Q9H3Y6)
[28] = molecular target: MERTK (human) (UniProt Q12866)
Sequence of MERTK (human) (Q12866 whole entry, looked up): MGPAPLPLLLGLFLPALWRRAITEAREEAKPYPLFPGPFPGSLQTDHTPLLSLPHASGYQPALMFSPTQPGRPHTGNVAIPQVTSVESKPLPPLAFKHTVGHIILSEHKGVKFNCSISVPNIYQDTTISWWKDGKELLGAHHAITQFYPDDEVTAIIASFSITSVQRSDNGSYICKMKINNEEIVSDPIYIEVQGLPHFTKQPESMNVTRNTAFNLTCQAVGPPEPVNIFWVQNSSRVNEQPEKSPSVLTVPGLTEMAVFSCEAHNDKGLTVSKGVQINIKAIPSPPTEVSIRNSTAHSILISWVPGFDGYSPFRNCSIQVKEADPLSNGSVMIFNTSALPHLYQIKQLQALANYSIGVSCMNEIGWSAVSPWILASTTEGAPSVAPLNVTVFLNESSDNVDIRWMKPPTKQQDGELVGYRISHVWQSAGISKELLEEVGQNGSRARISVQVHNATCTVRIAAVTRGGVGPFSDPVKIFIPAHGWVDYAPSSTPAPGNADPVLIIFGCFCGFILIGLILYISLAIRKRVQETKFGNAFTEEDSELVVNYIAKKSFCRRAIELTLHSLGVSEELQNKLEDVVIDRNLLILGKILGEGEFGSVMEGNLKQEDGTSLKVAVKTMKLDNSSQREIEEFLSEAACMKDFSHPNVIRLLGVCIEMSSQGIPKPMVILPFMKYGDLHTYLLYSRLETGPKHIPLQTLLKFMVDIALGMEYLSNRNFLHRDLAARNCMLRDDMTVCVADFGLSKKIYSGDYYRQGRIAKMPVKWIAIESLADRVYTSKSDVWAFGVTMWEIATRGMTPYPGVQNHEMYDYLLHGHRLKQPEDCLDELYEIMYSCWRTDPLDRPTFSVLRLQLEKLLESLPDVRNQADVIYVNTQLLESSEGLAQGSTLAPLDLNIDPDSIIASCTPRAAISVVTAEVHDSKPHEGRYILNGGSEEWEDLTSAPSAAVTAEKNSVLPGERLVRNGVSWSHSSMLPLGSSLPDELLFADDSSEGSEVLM

[29] = molecular target: SRC (human) (UniProt P12931)
[30] = molecular target: MAP3K2 (human) (UniProt Q9Y2U5)
[31] = molecular target: TAOK2 (human) (UniProt Q9UL54)
[32] = molecular target: CAMK2D (human) (UniProt Q13557)
[33] = molecular target: TEC (human) (UniProt P42680)
[34] = molecular target: RPS6KA5 KD2 (human) (UniProt O75582)
[35] = molecular target: FGFR2 (human) (UniProt P21802)
Sequence of FGFR2 (human) (P21802 whole entry, looked up): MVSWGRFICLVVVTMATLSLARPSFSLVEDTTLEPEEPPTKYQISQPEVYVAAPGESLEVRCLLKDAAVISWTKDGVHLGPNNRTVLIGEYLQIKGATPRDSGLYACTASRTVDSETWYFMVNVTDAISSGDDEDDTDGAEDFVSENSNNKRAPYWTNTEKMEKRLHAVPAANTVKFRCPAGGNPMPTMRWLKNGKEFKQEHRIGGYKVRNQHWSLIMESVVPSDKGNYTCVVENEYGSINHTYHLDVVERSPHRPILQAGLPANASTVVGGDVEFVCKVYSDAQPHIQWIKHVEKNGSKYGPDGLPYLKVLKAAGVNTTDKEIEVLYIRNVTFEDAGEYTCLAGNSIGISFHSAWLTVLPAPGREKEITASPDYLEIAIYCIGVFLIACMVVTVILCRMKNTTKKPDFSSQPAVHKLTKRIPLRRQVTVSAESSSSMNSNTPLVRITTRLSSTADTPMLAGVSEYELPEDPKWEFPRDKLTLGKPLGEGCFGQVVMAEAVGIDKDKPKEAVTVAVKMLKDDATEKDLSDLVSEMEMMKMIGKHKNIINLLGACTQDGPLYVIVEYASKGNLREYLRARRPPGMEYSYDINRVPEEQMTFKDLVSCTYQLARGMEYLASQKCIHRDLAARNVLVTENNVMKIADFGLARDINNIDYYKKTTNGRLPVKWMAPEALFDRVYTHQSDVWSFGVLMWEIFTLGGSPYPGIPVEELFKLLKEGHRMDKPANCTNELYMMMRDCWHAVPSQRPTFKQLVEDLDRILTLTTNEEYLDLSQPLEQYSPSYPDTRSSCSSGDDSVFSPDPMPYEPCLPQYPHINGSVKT

[36] = molecular target: DYRK1A (human) (UniProt Q13627)
[37] = molecular target: TSSK2 (human) (UniProt Q96PF2)
[38] = molecular target: RPS6KA4 KD2 (human) (UniProt O75676)
[39] = molecular target: FYN (human) (UniProt P06241)
[40] = molecular target: ACVRL1 (human) (UniProt P37023)
[41] = molecular target: CSNK1A1 (human) (UniProt P48729)

With `CC[n+]1c(/C=C/N(C)c2ccccc2)n(-c2ccccc2)c2ccc(-c3nc4ccccc4s3)cc21` the residual activity [1] was 103%, the residual activity [2] was 90.5% and the residual activity [3] was 103%. It also gave a residual activity [4] of 91.6%, a residual activity [5] of 96.7% and a residual activity [6] of 103%. For the same compound, the residual activity [7] was 103%, the residual activity [8] was 91.9% and the residual activity [9] was 101%. The residual activity [10] was 95.7%, the residual activity [11] was 91.7% and the residual activity [12] was 112%. For the same compound, the residual activity [13] was 108%, the residual activity [14] was 99.5% and the residual activity [15] was 92.2%. For the same compound, the residual activity [16] was 93.1%, the residual activity [17] was 90.2% and the residual activity [18] was 101%. For the same compound, the residual activity [19] was 97.8%, the residual activity [20] was 92.2% and the residual activity [21] was 101%. The residual activity [22] was 103%, the residual activity [23] was 103% and the residual activity [24] was 106%. For the same compound, the residual activity [25] was 88.5%, the residual activity [26] was 108% and the residual activity [27] was 93.7%. For the same compound, the residual activity [28] was 96.5%, the residual activity [29] was 94.5% and the residual activity [30] was 90.3%. It also gave a residual activity [31] of 97.7%, a residual activity [32] of 94% and a residual activity [33] of 161%. It also gave a residual activity [34] of 111%, a residual activity [35] of 100% and a residual activity [36] of 96.7%. For the same compound, the residual activity [37] was 98.4%, the residual activity [38] was 94.6% and the residual activity [39] was 99.2%. It also gave a residual activity [40] of 110% and a residual activity [41] of 106%.

For `CCN(CC)C(=O)c1ccc(Nc2nc(OCC3CCCCC3)c3nc[nH]c3n2)cc1`, the residual activity [1] was 95.2%, the residual activity [2] was 87.9% and the residual activity [3] was 85%. For the same compound, the residual activity [4] was 132%, the residual activity [5] was 67.1% and the residual activity [6] was 80.3%. The residual activity [7] was 15.2%, the residual activity [8] was 86.7% and the residual activity [9] was 71.2%. The residual activity [10] was 82.5%, the residual activity [11] was 78% and the residual activity [12] was 88.6%. For the same compound, the residual activity [13] was 5.73%, the residual activity [14] was 104% and the residual activity [15] was 90.4%. For the same compound, the residual activity [16] was 98.2%, the residual activity [17] was 30.7% and the residual activity [18] was 30.9%. The residual activity [19] was 87.6%, the residual activity [20] was 47.2% and the residual activity [21] was 96.1%. For the same compound, the residual activity [22] was 48.7%, the residual activity [23] was 52.9% and the residual activity [24] was 72.6%. For the same compound, the residual activity [25] was 94%, the residual activity [26] was 74.1% and the residual activity [27] was 84.7%. For the same compound, the residual activity [28] was 71.6%, the residual activity [29] was 72.8% and the residual activity [30] was 25.3%. The residual activity [31] was 66%, the residual activity [32] was 94.5% and the residual activity [33] was 63%. It also gave a residual activity [34] of 89.8%, a residual activity [35] of 76.6% and a residual activity [36] of 91.9%. The residual activity [37] was 87.4%, the residual activity [38] was 79.8% and the residual activity [39] was 62.6%. For the same compound, the residual activity [40] was 106% and the residual activity [41] was 104%.
